Legend:
Experiment in all cases: relative viability (nuclei count vs DMSO), 5 days (fraction); higher = more cells survive
Selumetinib + Navitoclax = compound: Cn1cnc2c(F)c(Nc3ccc(Br)cc3Cl)c(C(=O)NOCCO)cc21 [Selumetinib] + CC1(C)CCC(c2ccc(Cl)cc2)=C(CN2CCN(c3ccc(C(=O)NS(=O)(=O)c4ccc(N[C@H](CCN5CCOCC5)CSc5ccccc5)c(S(=O)(=O)C(F)(F)F)c4)cc3)CC2)C1 [Navitoclax] (partner 0.5 µM)
How it was run: (§1)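 Relative viability divides the nuclei count in treated wells by that in vehicle wells. Lung cancer cell lines were seeded in 1536-well plates, dosed by pin tool the next day, and fixed and stained after 5 days in one step with final 0.05% Triton X-100, 1% formaldehyde and 1 ug/ml Hoechst. Dosing was a single drug or a fixed anchor-drug dose plus five library-drug doses (not always all listed) in √10 steps, and values are medians of duplicate plates imaged at 4×.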

Venetoclax + Foretinib = compound: CC1(C)CCC(CN2CCN(c3ccc(C(=O)NS(=O)(=O)c4ccc(NCC5CCOCC5)c([N+](=O)[O-])c4)c(Oc4cnc5[nH]ccc5c4)c3)CC2)=C(c2ccc(Cl)cc2)C1 [Venetoclax] + COc1cc2c(Oc3ccc(NC(=O)C4(C(=O)Nc5ccc(F)cc5)CC4)cc3F)ccnc2cc1OCCCN1CCOCC1 [Foretinib] (partner 0.25 µM)
How it was run: as §1

Venetoclax + Decitabine = compound: CC1(C)CCC(CN2CCN(c3ccc(C(=O)NS(=O)(=O)c4ccc(NCC5CCOCC5)c([N+](=O)[O-])c4)c(Oc4cnc5[nH]ccc5c4)c3)CC2)=C(c2ccc(Cl)cc2)C1 [Venetoclax] + Nc1ncn([C@H]2C[C@H](O)[C@@H](CO)O2)c(=O)n1 [Decitabine] (partner 2 µM)
How it was run: as §1

Selumetinib + Decitabine = compound: Cn1cnc2c(F)c(Nc3ccc(Br)cc3Cl)c(C(=O)NOCCO)cc21 [Selumetinib] + Nc1ncn([C@H]2C[C@H](O)[C@@H](CO)O2)c(=O)n1 [Decitabine] (partner 2 µM)
How it was run: as §1

Row | Cell Line | relative viability (Selumetinib + Navitoclax; first compound 0.02 µM) | relative viability (Selumetinib + Navitoclax; first compound 0.06325 µM) | relative viability (Selumetinib + Navitoclax; first compound 0.2 µM) | relative viability (Selumetinib + Navitoclax; first compound 0.6325 µM) | relative viability (Venetoclax + Foretinib; first compound 0.01 µM) | relative viability (Venetoclax + Foretinib; first compound 0.03162 µM) | relative viability (Venetoclax + Foretinib; first compound 0.1 µM) | relative viability (Venetoclax + Foretinib; first compound 0.3162 µM) | relative viability (Venetoclax + Foretinib; first compound 1 µM) | relative viability (Venetoclax + Decitabine; first compound 0.01 µM) | relative viability (Venetoclax + Decitabine; first compound 0.03162 µM) | relative viability (Venetoclax + Decitabine; first compound 0.1 µM) | relative viability (Venetoclax + Decitabine; first compound 0.3162 µM) | relative viability (Venetoclax + Decitabine; first compound 1 µM) | relative viability (Selumetinib + Decitabine; first compound 0.02 µM) | relative viability (Selumetinib + Decitabine; first compound 0.06325 µM) | relative viability (Selumetinib + Decitabine; first compound 0.2 µM) | relative viability (Selumetinib + Decitabine; first compound 0.6325 µM)
1 | Calu-6 | 0.727 | 0.513 | 0.355 | 0.234 | 0.907 | 0.861 | 0.992 | 0.846 | 0.878 | – | – | – | – | – | – | – | – | –
2 | NCI-H1975 | 1.23 | 1.22 | 1.01 | 0.728 | 0.936 | 1.02 | 0.89 | 0.942 | 0.929 | 0.358 | 0.371 | 0.414 | 0.393 | 0.43 | 0.615 | 0.384 | 0.385 | 0.334
3 | SK-MES-1 | 1.41 | 1.32 | 1.26 | 1.06 | 0.895 | 0.988 | 0.951 | 0.991 | 0.899 | 0.305 | 0.428 | 0.367 | 0.404 | 0.391 | 0.416 | 0.307 | 0.356 | 0.323
4 | NCI-H1666 | 0.773 | 0.582 | 0.592 | 0.479 | 0.889 | 0.946 | 0.904 | 0.915 | 0.943 | 0.719 | 0.783 | 0.748 | 0.676 | 0.741 | 0.758 | 0.682 | 0.689 | 0.71
5 | NCI-H2228 | 0.928 | 0.678 | 0.789 | 0.729 | 0.788 | 0.906 | 0.851 | 1 | 0.776 | – | – | – | – | – | – | – | – | –
6 | HCC-44 | 0.986 | 0.847 | 0.794 | 0.836 | – | – | – | – | – | 0.938 | 0.919 | 0.87 | 0.892 | 0.949 | 1.03 | 0.982 | 0.962 | 0.942
7 | PC-14 | 1.02 | 1.03 | 0.957 | 0.949 | 0.945 | 0.968 | 0.939 | 0.966 | 0.822 | 0.298 | 0.164 | 0.224 | 0.207 | 0.213 | 0.241 | 0.2 | 0.227 | 0.179
8 | NCI-H1299 | 1.02 | 1.09 | 1.05 | 0.899 | 1.07 | 1.11 | 1.1 | 1.07 | 1.03 | – | – | – | – | – | – | – | – | –
9 | NCI-H661 | – | – | – | – | 0.978 | 1.01 | 1.02 | 0.996 | 0.888 | 0.561 | 0.528 | 0.547 | 0.532 | 0.529 | 0.572 | 0.492 | 0.546 | 0.51
10 | HCC-827 | 0.978 | 1.04 | 1.03 | 1.04 | 0.966 | 1.03 | 0.971 | 0.98 | 0.916 | 0.303 | 0.418 | 0.34 | 0.249 | 0.346 | 0.362 | 0.317 | 0.351 | 0.448
11 | NCI-H1915 | 0.714 | 0.792 | 0.795 | 0.498 | 1.08 | 1.01 | 1.06 | 1.01 | 1.01 | 0.23 | 0.279 | 0.258 | 0.258 | 0.258 | 0.28 | 0.263 | 0.239 | 0.246
12 | NCI-H441 | 0.959 | 0.574 | 0.839 | 0.546 | 0.903 | 0.962 | 0.966 | 0.97 | 0.686 | 0.235 | 0.219 | 0.208 | 0.23 | 0.24 | 0.244 | 0.224 | 0.207 | 0.268
13 | EBC-1 | 0.225 | 0.19 | 0.193 | 0.138 | 0.115 | 0.0897 | 0.09 | 0.0924 | 0.0981 | – | – | – | – | – | – | – | – | –
14 | NCI-H1623 | – | – | – | – | 0.897 | 0.906 | 0.893 | 0.836 | 0.858 | – | – | – | – | – | – | – | – | –
15 | NCI-H2342 | – | – | – | – | 1 | 1.23 | 1.03 | 1.01 | 1.13 | 0.777 | 0.735 | 0.713 | 0.764 | 0.693 | 0.778 | 0.716 | 0.727 | 0.638
16 | RERF-LC-KJ | 0.726 | 0.819 | 0.939 | 0.758 | 0.793 | 0.94 | 0.871 | 0.927 | 0.784 | 0.69 | 0.73 | 0.69 | 0.666 | 0.611 | 0.682 | 0.608 | 0.639 | 0.737
17 | SW 900 | – | – | – | – | 0.745 | 1.05 | 0.823 | 0.916 | 1.16 | 0.455 | 0.444 | 0.356 | 0.405 | 0.39 | 0.43 | 0.409 | 0.441 | 0.504
18 | IA-LM | 0.566 | 0.398 | 0.284 | 0.315 | 1.02 | 1.17 | 1.13 | 1.14 | 0.977 | – | – | – | – | – | – | – | – | –
19 | NCI-H358 | – | – | – | – | 0.69 | 0.66 | 0.694 | 0.695 | 0.638 | 0.18 | 0.238 | 0.226 | 0.208 | 0.205 | 0.194 | 0.181 | 0.193 | 0.158
20 | NCI-H522 | – | – | – | – | – | – | – | – | – | 0.657 | 0.694 | 0.617 | 0.605 | 0.677 | 0.837 | 0.585 | 0.692 | 0.7
21 | CAL-12T | 1.28 | 1.36 | 0.986 | 0.921 | 1.17 | 1.14 | 1.13 | 1.18 | 1.05 | – | – | – | – | – | – | – | – | –
22 | NCI-H1648 | – | – | – | – | – | – | – | – | – | – | 0.487 | 0.418 | 0.634 | 0.491 | – | 0.447 | 0.477 | 0.673
23 | ABC-1 | – | – | – | – | 0.867 | 1.22 | 0.976 | 0.961 | 0.922 | 1.07 | 1.24 | 1.02 | 1.12 | 1.24 | 1.01 | 1.08 | 1.08 | 1.02
